# Reference: US9006191B2, “Silencing of polo-like kinase expression using interfering RNA” (Protiva Biotherapeutics, Inc., priority 2007, dated 2015)
# Entries after “also recorded” stand apart in the source; their conditions may differ.
# Legend:
# Neuro2A cells = experiment: Neuro2A cell viability assay (CellTiter-Blue); type: cell-based; details: mouse Neuro2A cells, SNALP-formulated siRNA, viability at 72 h relative to PBS
# Experimental: (§1) Various PLK-1 siRNAs were formulated as SNALP (“2:40” SNALP formulation: 2% PEG-cDMA; 40% DLinDMA; 10% DSPC; and 48% cholesterol) and evaluated for their inhibitory effects on cell growth in vitro. HT29 (human colon adenocarcinoma) or Neuro2A (mouse neuroblastoma) cells were treated with various PLK-1 SNALP at a range of siRNA concentrations and their effect on cell viability was evaluated. Viability of cell cultures is expressed as % viability relative to PBS treated controls.
# Additional PLK-1 siRNA molecules were formulated as SNALP (“2:40” SNALP formulation: 2% PEG-cDMA; 40% DLinDMA; 10% DSPC; and 48% cholesterol) and evaluated for their inhibitory effects on cell growth in vitro. HT29 or Neuro2A cells were plated in triplicate at 5000 cells/well and 2500 cells/well, respectively. PLK-1 SNALP dosages were as follows: 25 nM; 5 nM; and 1 nM. Cell viability analysis was performed at 72 hours following transfection. SNALP containing a non-targeting (GFP) siRNA were used as a negative control.
# Additional PLK-1 siRNA molecules were formulated as SNALP (“2:40” SNALP formulation: 2% PEG-cDMA; 40% DLinDMA; 10% DSPC; and 48% cholesterol) and evaluated for their inhibitory effects on cell growth in vitro. HT29 or Neuro2A cells were plated in triplicate at 5000 cells/well and 2500 cells/well, respectively. PLK-1 SNALP dosages were as follows: 30 nM; 10 nM; and 3.3 nM. Cell viability analysis was performed at 72 hours following transfection. SNALP containing a non-targeting (GFP) siRNA were used as a negative control.
# HT29 cells = experiment: HT29 cell viability assay (CellTiter-Blue); type: cell-based, human; details: for anti-proliferative activity in screen of PLK-1 siRNA panel: HT29 cells, 1, 5, 25 nM, 72 h; for cell viability / killing of human tumor cells: HT29 cells, SNALP-formulated siRNA at a range of siRNA concentrations, viability at 72 h relative to PBS
# Experimental: as §1
# Additional PLK-1 siRNA molecules were formulated as SNALP (“2:40” SNALP formulation: 2% PEG-cDMA; 40% DLinDMA; 10% DSPC; and 48% cholesterol) and evaluated for their inhibitory effects on cell growth in vitro. HT29 or Neuro2A cells were plated in triplicate at 5000 cells/well and 2500 cells/well, respectively. PLK-1 SNALP dosages were as follows: 25 nM; 5 nM; and 1 nM. Cell viability analysis was performed at 72 hours following transfection. SNALP containing a non-targeting (GFP) siRNA were used as a negative control. […]
# PLK-1 siRNA molecules containing 2′-O-methyl (2′OMe) nucleotides at selective positions within the double-stranded region of the siRNA duplex were formulated as SNALP (“2:40” SNALP formulation: 2% PEG-cDMA; 40% DLinDMA; 10% DSPC; and 48% cholesterol) and evaluated for their inhibitory effects on cell growth in vitro. HT29 cells were plated in triplicate at 5000 cells/well. Cell viability analysis was performed at 72 hours following transfection with a range of PLK-1 SNALP dosages. SNALP containing a non-targeting (GFP) siRNA were used as a negative control.
# Cell viability assays. […] Cell viability analysis was performed at 72 hours following transfection with a range of PLK-1 SNALP dosages.
# Hep3B liver tumors = experiment: Intrahepatic Hep3B tumor model (survival, body weight, tumor burden); type: in vivo
# Experimental: SNALP containing PLK-1 siRNA (“1:57” SNALP formulation: 1.4% PEG-cDMA; 57.1% DLinDMA; 7.1% DPPC; and 34.3% cholesterol) were tested for their effects on the survival of […] mice bearing Hep3B liver tumors.
# Intrahepatic tumor models. Liver tumors were established in mice by direct intrahepatic injection of Hep3B or Neuro2a tumor cells (45). Female scid/beige mice (Charles River Laboratories) and male A/J mice (Jackson Laboratories) were used as hosts for the Hep3B and Neuro2a tumors, respectively. Animals received Anafen by SC injection immediately prior to surgery. Individual mice were anaesthetized by isoflourane gas inhalation and eye lube applied to prevent excessive eye drying. While maintained under gas anaesthesia, a single 1.5 cm incision across the midline was made below the sternum and the left lateral hepatic lobe exteriorized. 1×10^6 Hep3B cells or 1×10^5 Neuro2a cells suspended in 25 μL PBS were injected slowly into the lobe at a shallow angle using a Hamilton syringe and 30G needle. A swab was then applied to the puncture wound to stop any bleeding prior to suturing. Mice were allowed to recover from anaesthesia in a sterile cage and monitored closely for 2-4 h before being returned to conventional housing.
# Eight to 11 days after tumor implantation, mice were randomized into treatment groups. siRNA SNALP formulations or PBS vehicle control were administered by standard intravenous injection via the lateral tail vein, calculated on a mg siRNA/kg basis according to individual animal weights (10 mL/kg injection volume). Body weights were then monitored throughout the duration of the study as an indicator of developing tumor burden and treatment tolerability. For efficacy studies, defined humane endpoints were determined as a surrogate for survival. Assessments were made by qualified veterinary technicians based on a combination of clinical signs, weight loss, and abdominal distension to define the day of euthanization due to tumor burden.
# Measurement of human PLK-1 and GAPDH mRNA in tumor tissues. Tumors were harvested directly into RNALater and stored at 4° C. until processing. 100 mg tumor tissue was homogenized in Tissue and Lysis Solution (EpiCentre Biotechnologies) containing […] proteinase K (EpiCentre) in a Fastprep tissue homogenizer followed by incubation in a 65° C. waterbath for 15 min and centrifuged to clarify lysates. mRNA analysis in FIG. 33B was performed on purified RNA isolated according the 5′-RACE-PCR protocol. Human PLK-1 and GAPDH mRNA were measured in tumor lystes by the QuantiGene bDNA assay (Panomics) as per the manufacturer's instructions (Quantigene 1.0 Manual). […] Data were expressed as mean PLK-1:GAPDH ratio+/−SD of individual animals. Tumor burden was assessed by homogenizing the complete liver from tumor bearing mice and measuring the total hGAPDH signal (RLU's) within the liver. Values were expressed as hGAPDH RLU/mg total liver.
# [1] = Hep3B-nu/nu mouse model, 2 mg/kg twice weekly d11-d28
Substance,cell viability / inhibition of cell growth (Neuro2A cells),anti-proliferative activity in screen of PLK-1 siRNA panel (HT29 cells),cell viability / killing of human tumor cells (HT29 cells),"mice with visible tumors at autopsy (Hep3B liver tumors; day 22, 1 day after fifth 2 mg/kg dose)","survival advantage (Kaplan-Meier, Log-rank) (Hep3B liver tumors; scid/beige mice, 6 × 2 mg/kg IV twice weekly, d 10 to d 28)","median survival, Study (A) (Hep3B liver tumors; [1])","median survival, study (B) (Hep3B liver tumors; [1])"
"PLK773: siRNA to human PLK-1, SEQ ID NO:3/4 (UU overhang form 218/219) (chain 1 AGACCUACCUCCGGAUCAA; chain 2 UUGAUCCGGAGGUAGGUCU; RNA, backbone not given here)",most potent human/mouse cross-reactive siRNA molecules,"most potent mouse, rat, and human cross-reactive siRNA",effective at killing human tumor cells; also recorded: inhibiting cell growth; also recorded: dose-dependent decrease in cell viability,,,,
"PLK1424-2/A: 2′OMe-modified PLK1424 duplex, SEQ ID NO:214/215 (same SEQ IDs as PLK1424 1/3 of Table 11) (chain 1 AGANCACCCNCCUNAAANAUU; chain 2 UAUUUAANGAGGGUGANCUUU; siRNA; 2'-O-methyl modifications at selected positions, key for n not given here)",,,,2 of 6,significant survival advantage over control treatment,,
"PLK1424: siRNA to human PLK-1, SEQ ID NO:1/2 (UU overhang form 211/212) (chain 1 AGAUCACCCUCCUUAAAUA; chain 2 UAUUUAAGGAGGGUGAUCU; further chemistry not given here)",inactivity in the mouse cell line,most potent human siRNA,highly potent at killing human tumor cells; also recorded: most potent effects; also recorded: inhibiting cell growth; also recorded: dose-dependent decrease in cell viability,,,45 days,42 days
